Patent publication US7989482B2, “Indoline anti-cancer agents” (Joyant Pharmaceuticals, Inc., priority 2008, dated 2011)
Like-named read-outs stand apart in the source and are kept apart here.

Key:
[1] = system: A375; experiment: Cell profiling, A375 tumor cell line; assay type: cell-based; conditions: Homo sapiens, A-375; Tumor cell line A375, origin Skin
Procedure: (§1) Cell viability assays were run using standard protocols known to those of skill in art. Cells were plated in 96 well plates at the density of 3,000-10,000 cells per well. Twenty four hours later, cells were treated with increasing concentration of test compounds (1 nM to 1 μM). After another 48 hour, cell survival was measured using CELL-TITER-GLO® reagent (Promega) following the protocol provided by the manufacture. The IC50 value was determined as the concentration of test compound that kills 50% of the cell population.
(§2) The compound of Example 46 was profiled in tumor cell lines derived from a variety of origins.

[2] = system: HCC461; experiment: Cell profiling, HCC461 tumor cell line; assay type: cell-based; conditions: Tumor cell line HCC461, origin Lung
Procedure: as §1, §2

[3] = system: COLO205; experiment: Cell profiling, COLO205 tumor cell line; assay type: cell-based; conditions: Homo sapiens, COLO 205; Tumor cell line COLO205, origin Colon
Procedure: as §1, §2

[4] = system: NCI-H460; experiment: Cell profiling, NCI-H460 tumor cell line; assay type: cell-based; conditions: Homo sapiens; Tumor cell line NCI-H460, origin Lung
Procedure: as §1, §2

[5] = system: HCC1437; experiment: Cell profiling, HCC1437 tumor cell line; assay type: cell-based; conditions: Tumor cell line HCC1437, origin Lung
Procedure: as §1, §2

[6] = system: HCT116; experiment: Cell profiling, HCT116 tumor cell line; assay type: cell-based; conditions: Homo sapiens, HCT-116; Tumor cell line HCT116, origin Colon
Procedure: as §1, §2

[7] = system: HT29; experiment: Cell profiling, HT29 tumor cell line; assay type: cell-based; conditions: Homo sapiens, HT-29; Tumor cell line HT29, origin Colon
Procedure: as §1, §2

[8] = system: A2058 cells; experiment: Cell viability assay (CELL-TITER-GLO) in A2058 cells; assay type: cell-based; conditions: Homo sapiens
Procedure: as §1
(§3) Cell viability data generated according to the protocol described in Example 97 was generated for representative compounds in A2058 and U937 cells.

[9] = system: U937 cells; experiment: Cell viability assay (CELL-TITER-GLO) in U937 cells; assay type: cell-based; conditions: Homo sapiens
Procedure: as §1, §3

[10] = system: LOVO; experiment: Cell profiling, LOVO tumor cell line; assay type: cell-based; conditions: Homo sapiens, origin Colon
Procedure: as §1, §2

[11] = system: BT474; experiment: Cell profiling, BT474 tumor cell line; assay type: cell-based; conditions: Homo sapiens, BT-474; Tumor cell line BT474, origin Breast
Procedure: as §1, §2

[12] = system: DU145; experiment: Cell profiling, DU145 tumor cell line; assay type: cell-based; conditions: Homo sapiens, DU-145; Tumor cell line DU145, origin Prostate
Procedure: as §1, §2

[13] = system: BxPC3; experiment: Cell profiling, BxPC3 tumor cell line; assay type: cell-based; conditions: Homo sapiens, BXPC-3; Tumor cell line BxPC3, origin Pancreas
Procedure: as §1, §2

[14] = system: OVCAR 3; experiment: Cell profiling, OVCAR 3 tumor cell line; assay type: cell-based; conditions: Homo sapiens; Tumor cell line OVCAR 3, origin Ovarian
Procedure: as §1, §2

[15] = system: HCT116 human colon carcinoma xenograft; experiment: HCT116 human colon carcinoma xenograft model in mice; assay type: in vivo; conditions: 20 mg/kg per dose intravenously, days 9, 11, 14, 16, 18 and 21 post tumor cell injection
Procedure: Compound of Example 73 was administered at 20 mg/kg per dose. Injections were given at days 9, 11, 14, 16, 18 and 21 post tumor cell injection.
The compound of Example 73 was tested in HCT116 human colon carcinoma xenograft and Miapaca pancreatic cancer xenograft tumor models in 5- to 6-week-old Harlan Athymic Nude-Foxnlnu mice.
Preparation of Tumor Cells • 1. Tumor cells were cultured in complete RPMI medium and excluded any contamination • 2. When cells are 70-80% confluent, medium was removed and cells were washed with serum free media, trypsinized, harvested and washed with serum free media for three times by centrifuge. After final washing, cells were counted and mixed with matrigel at 1:1 ration in volume. Cells were suspended in a volume that 200 μl contains required number of cells per injection.
Preparation of the Injection • 1. Clean and sterilize the inoculation area of the mice with iodine solutions and ethanol. • 2. Take cells with 1-cc syringe. • 3. Inject tumor cells (1×10^7) subcutaneously (s.c.) into the lower flank of the mice. • 4. When tumors reached 200-300 mm^3 in size, mice were randomized into treatment groups of five mice per group. • 5. Mice were weighed and tumors measured using vernier calipers two times per week. Tumor volume in mm3 is calculated by the formula: Volume (mm^3)=(length×width^2)/2. […]

[16] = A2058, 48 h, A2058 cells, 48 hour treatment, cell viability, read-out: IC50 (μM) A2058
[17] = U-937, 48 h, U937 cells, 48 hour treatment, cell viability, read-out: IC50 (μM) U937
[18] = A2058 cells, 48 hour treatment, cell viability, read-out: IC50 (μM) A2058
[19] = U-937, U937 cells, 48 hour treatment, cell viability, read-out: IC50 (μM) U937

## COC(=O)c1coc(-c2nc3oc2C24c5ccccc5N[C@H]2Oc2ccc(cc24)C[C@H](NC(=O)[C@@H](O)C(C)C)C(=O)N[C@H]3C(C)C)n1 (some centres unmarked) [Example 46]
[1]
  IC50: 99 nM
[2]
  IC50: 344 nM
[3]
  IC50: 147 nM
[4]
  IC50: 245 nM
[5]
  IC50: 63 nM
[6]
  IC50: 731 nM
[7]
  IC50: 90 nM
[8]; [16]
  IC50: 0.044 µM
[8]; A2058, Tumor cell line A2058, origin Skin, read-out: IC50
  IC50: 0.044 µM
[9]; [17]
  IC50: 0.013 µM
[9]; U-937, Tumor cell line U937, origin Blood, read-out: IC50
  IC50: 0.013 µM
[10]
  IC50: 148 nM
[11]
  IC50: 6 nM
[12]
  IC50: 67 nM
[13]
  IC50: 23 nM
[14]
  IC50: 32 nM

## CC(C)[C@H](O)C(=O)N[C@H]1Cc2ccc3c(c2)C2(C4=C(c5nc(CO)co5)N=C(O4)[C@H](C(C)C)NC1=O)c1ccccc1N[C@H]2O3 (some centres unmarked) [Example 73]
[8]; [16]
  IC50: 0.093 µM
[9]; [17]
  IC50: 0.037 µM
[15]
  maximum weight loss: 7.9%
[15]; day 25
  tumor size for treated animals, % of control: 34.5 % of control

## CCOC(=O)c1coc(-c2nc3oc2C24c5ccccc5N[C@H]2Oc2ccc(cc24)C[C@H](NC(=O)[C@@H](O)C(C)C)C(=O)N[C@H]3C(C)C)n1 (some centres unmarked) [Example 80]
[8]; [16]
  IC50: 0.021 µM
[9]; [17]
  IC50: 0.0013 µM

## CC(C)OC(=O)c1coc(-c2nc3oc2C24c5ccccc5N[C@H]2Oc2ccc(cc24)C[C@H](NC(=O)[C@@H](O)C(C)C)C(=O)N[C@H]3C(C)C)n1 (some centres unmarked) [Example 81]
[8]; [16]
  IC50: 0.006 µM
[9]; [17]
  IC50: 0.0014 µM

## CC(C)[C@H](O)C(=O)N[C@H]1Cc2ccc3c(c2)C2(C4=C(c5nc(C(=O)OC(C)(C)C)co5)N=C(O4)[C@H](C(C)C)NC1=O)c1ccccc1N[C@H]2O3 (some centres unmarked) [Example 82]
[8]; [16]
  IC50: 0.126 µM
[9]; [17]
  IC50: 0.066 µM

## CC(C)[C@H](O)C(=O)N[C@H]1Cc2ccc3c(c2)C2(C4=C(c5cnco5)N=C(O4)[C@H](C(C)C)NC1=O)c1ccccc1N[C@H]2O3 (some centres unmarked) [Example 83]
[8]; [16]
  IC50: 0.433 µM
[9]; [17]
  IC50: 0.252 µM

## CCC(O)(CC)C(=O)N[C@H]1Cc2ccc3c(c2)C2(C4=C(c5cnco5)N=C(O4)[C@H](C(C)C)NC1=O)c1ccccc1N[C@H]2O3 (some centres unmarked) [Example 84]
[8]; [16]
  IC50: 0.487 µM
[9]; [17]
  IC50: 0.315 µM

## CC(C)[C@H](O)C(=O)N[C@H]1Cc2ccc3c(c2)C2(C4=C(c5ncc[nH]5)N=C(O4)[C@H](C(C)C)NC1=O)c1ccccc1N[C@H]2O3 (some centres unmarked) [Example 85]
[8]; [16]
  IC50: 0.337 µM
[9]; [17]
  IC50: 0.234 µM

## CC(C)[C@H](O)C(=O)N[C@H]1Cc2ccc3c(c2)C2(C4=C(c5nc(C#N)c(N)o5)N=C(O4)[C@H](C(C)C)NC1=O)c1ccccc1N[C@H]2O3 (some centres unmarked) [Example 86]
[8]; [16]
  IC50: 0.179 µM
[9]; [17]
  IC50: 0.064 µM

## Cc1noc(-c2nc3oc2C24c5ccccc5N[C@H]2Oc2ccc(cc24)C[C@H](NC(=O)[C@@H](O)C(C)C)C(=O)N[C@H]3C(C)C)n1 (some centres unmarked) [Example 87]
[8]; [16]
  IC50: 0.479 µM
[9]; [17]
  IC50: 0.164 µM

## CCOC(=O)c1noc(-c2nc3oc2C24c5ccccc5N[C@H]2Oc2ccc(cc24)C[C@H](NC(=O)[C@@H](O)C(C)C)C(=O)N[C@H]3C(C)C)n1 (some centres unmarked) [Example 88]
[8]; [16]
  IC50: > 1 µM
[9]; [17]
  IC50: 0.7 µM

## COC(=O)c1nc([C@@H](NC(=O)[C@H](Cc2ccc(O)cc2)NC(=O)[C@@H](O)C(C)C)C(C)C)oc1-c1c[nH]c2ccccc12 [Example 89]
[8]; [18]
  IC50: > 1 µM
[9]; [19]
  IC50: > 1 µM

## CC(C)[C@H](O)C(=O)N[C@H]1Cc2ccc3c(c2)C2(C4=C(c5ncc(-c6c[nH]c7c(O)cccc67)o5)N=C(O4)[C@H](C(C)C)NC1=O)c1ccccc1N[C@H]2O3 (some centres unmarked) [Example 90]
[8]; [16]
  IC50: 0.994 µM
[9]; [17]
  IC50: > 1 µM

## CC(C)[C@H](O)C(=O)N[C@H]1Cc2ccc3c(c2)C2(C4=C(c5ncc(-c6c[nH]c7ccccc67)o5)N=C(O4)[C@H](C(C)C)NC1=O)c1ccccc1N[C@H]2O3 (some centres unmarked) [Example 91]
[8]; [16]
  IC50: 0.475 µM
[9]; [17]
  IC50: 0.579 µM

## COC(=O)c1nc2oc1[C@@]13c4cc(Cl)ccc4NC1Oc1ccc(cc13)C[C@H](NC(=O)[C@@H](O)C(C)C)C(=O)N[C@H]2C(C)C (some centres unmarked) [Example 93]
[8]; [16]
  IC50: > 1 µM
[9]; [17]
  IC50: > 1 µM

## COC(=O)c1nc([C@@H](NC(=O)[C@H](Cc2ccccc2)NC(=O)[C@@H](O)C(C)C)C(C)C)oc1-c1c[nH]c2ccccc12 [Example 94]
[8]; [18]
  IC50: > 1 µM
[9]; [19]
  IC50: > 1 µM

## COc1ccc(-c2cnc(-c3nc4oc3[C@@]35c6ccccc6NC3Oc3ccc(cc35)C[C@H](NC(=O)[C@@H](O)C(C)C)C(=O)NC4C(C)C)o2)cc1 (some centres unmarked) [Example 95]
[8]; [16]
  IC50: > 1 µM
[9]; [17]
  IC50: > 1 µM
